# From patent publication US11142526B2, “Spirocycle compounds and methods of making and using same” (H. Lundbeck A/S, priority 2017, dated 2021)
# Target: MAGL (Mus musculus (Mouse), UniProt O35678)
# Assay: In vitro competitive activity-based protein profiling, mouse brain proteome
# Type: biochemical
# Conditions: for IC50: mouse brain
# Chain of MAGL (O35678 whole entry): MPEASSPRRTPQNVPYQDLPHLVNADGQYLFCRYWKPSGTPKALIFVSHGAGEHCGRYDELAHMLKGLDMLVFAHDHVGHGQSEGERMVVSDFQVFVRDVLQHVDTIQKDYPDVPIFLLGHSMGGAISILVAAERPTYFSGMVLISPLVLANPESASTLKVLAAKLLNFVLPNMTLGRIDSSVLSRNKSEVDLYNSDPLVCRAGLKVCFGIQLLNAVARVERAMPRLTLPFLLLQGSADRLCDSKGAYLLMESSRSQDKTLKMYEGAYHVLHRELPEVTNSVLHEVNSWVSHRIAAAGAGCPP
Structure (SMILES),IC50,"inhibition at 1 µM (1 uM, mouse)","MAGL % Inhibition at 1 uM (Mouse) (1 uM, mouse)"
"O=C(OC(C(F)(F)F)C(F)(F)F)N1CCC2(CCCN2C(=O)c2cccnc2)CC1 [Example 13, 1,1,1,3,3,3-Hexafluoropropan-2-yl 1-nicotinoyl-1,8-diazaspiro[4.5]decane-8-carboxylate]",,> 75%,
"Cc1ccc2[nH]c(C(=O)N3CCCC34CCN(C(=O)OC(C(F)(F)F)C(F)(F)F)CC4)cc2c1 [Example 14, 1,1,1,3,3,3-Hexafluoropropan-2-yl 1-(5-methyl-1H-indole-2-carbonyl)-1,8-diazaspiro[4.5]decane-8-carboxylate]",< 0.1 µM,> 75%,
"Cc1c(CN(C)C2(C)CCN(C(=O)OC(C(F)(F)F)C(F)(F)F)CC2)sc2ccccc12 [Example 50, 1,1,1,3,3,3-Hexafluoropropan-2-yl 4-methyl-4-(methyl((3-methylbenzo[b]thiophen-2-yl)methyl)amino) piperidine-1-carboxylate]",0.1 to 1 µM,> 75%,
"Cc1ccc2cc(C(=O)N3CCCC34CCN(C(=O)OC(C(F)(F)F)C(F)(F)F)CC4)sc2c1 [Example 59, 1,1,1,3,3,3-Hexafluoropropan-2-yl 1-(6-methylbenzo[b]thiophene-2-carbonyl)-1,8-diazaspiro[4.5] decane-8-carboxylate]",,> 75%,
"O=C(OC(C(F)(F)F)C(F)(F)F)N1CCC2(CCN(Cc3cccnc3)C2)CC1 [Example 64, 1,1,1,3,3,3-Hexafluoropropan-2-yl 2-(pyridin-3-ylmethyl)-2,8-diazaspiro[4.5] decane-8-carboxylate]",0.1 to 1 µM,> 75%,
"O=C(OC(C(F)(F)F)C(F)(F)F)N1CCC2(CCN(Cc3ncccn3)C2)CC1 [Example 65, 1,1,1,3,3,3-Hexafluoropropan-2-yl 2-(pyrimidin-2-ylmethyl)-2,8-diazaspiro[4.5] decane-8-carboxylate]",,> 75%,
"O=C(OC(C(F)(F)F)C(F)(F)F)N1CCC2(CCN(Cc3nccs3)C2)CC1 [Example 66, 1,1,1,3,3,3-Hexafluoropropan-2-yl 2-(thiazol-2-ylmethyl)-2,8-diazaspiro [4.5]decane-8-carboxylate]",< 0.1 µM,> 75%,
"O=C(OC(C(F)(F)F)C(F)(F)F)N1CCC2(CCN(Cc3cncnc3)C2)CC1 [Example 67, 1,1,1,3,3,3-Hexafluoropropan-2-yl 2-(pyrimidin-5-ylmethyl)-2,8-diazaspiro[4.5] decane-8-carboxylate]",0.1 to 1 µM,> 75%,
"Cn1cc(C(=O)N2CCCC23CCN(C(=O)OC(C(F)(F)F)C(F)(F)F)CC3)cn1 [Example 70, 1,1,1,3,3,3-Hexafluoropropan-2-yl 1-(1-methyl-1H-pyrazole-4-carbonyl)-1,8-diazaspiro[4.5] decane-8-carboxylate]",0.1 to 1 µM,> 75%,
"O=C(OC(C(F)(F)F)C(F)(F)F)N1CCC2(CCCN2C(=O)c2cnn(-c3ccccc3)c2)CC1 [Example 72, 1,1,1,3,3,3-Hexafluoropropan-2-yl 1-(1-phenyl-1H-pyrazole-4-carbonyl)-1,8-diazaspiro[4.5] decane-8-carboxylate]",< 0.1 µM,> 75%,
"O=C(OC(C(F)(F)F)C(F)(F)F)N1CCC2(CCN(Cc3ccccn3)C2)CC1 [Example 73, 1,1,1,3,3,3-Hexafluoropropan-2-yl 2-(pyridin-2-ylmethyl)-2,8-diazaspiro [4.5]decane-8-carboxylate]",0.1 to 1 µM,> 75%,
"O=C(OC(C(F)(F)F)C(F)(F)F)N1CCC2(CCN(Cc3ccncn3)C2)CC1 [Example 74, 1,1,1,3,3,3-Hexafluoropropan-2-yl 2-(pyrimidin-4-ylmethyl)-2,8-diazaspiro[4.5] decane-8-carboxylate]",< 0.1 µM,> 75%,
"O=C(OC(C(F)(F)F)C(F)(F)F)N1CCC2(CCCN2C(=O)c2cnn(-c3ccc(Cl)cc3)c2)CC1 [Example 78, 1,1,1,3,3,3-Hexafluoropropan-2-yl 1-(1-(4-chlorophenyl)-1H-pyrazole-4-carbonyl)-1,8-diazaspiro[4.5] decane-8-carboxylate]",< 0.1 µM,> 75%,
"O=C(OC(C(F)(F)F)C(F)(F)F)N1CCC2(CCCN2C(=O)c2cc3ccccc3s2)CC1 [Example 80, 1,1,1,3,3,3-Hexafluoropropan-2-yl 1-(benzo[b]thiophene-2-carbonyl)-1,8-diazaspiro[4.5] decane-8-carboxylate]",< 0.1 µM,> 75%,
"CC(C)n1ccc(C(=O)N2CCCC23CCN(C(=O)OC(C(F)(F)F)C(F)(F)F)CC3)n1 [Example 81, 1,1,1,3,3,3-Hexafluoropropan-2-yl 1-(1-isopropyl-1H-pyrazole-3-carbonyl)-1,8-diazaspiro[4.5] decane-8-carboxylate]",< 0.1 µM,> 75%,
"O=C(OC(C(F)(F)F)C(F)(F)F)N1CCC2(CCCN2C(=O)c2ccn(-c3ccccc3)n2)CC1 [Example 82, 1,1,1,3,3,3-Hexafluoropropan-2-yl 1-(1-phenyl-1H-pyrazole-3-carbonyl)-1,8-diazaspiro[4.5] decane-8-carboxylate]",< 0.1 µM,> 75%,
"O=C(OC(C(F)(F)F)C(F)(F)F)N1CCC2(CCCN2C(=O)c2cc3ccccc3o2)CC1 [Example 83, 1,1,1,3,3,3-Hexafluoropropan-2-yl 1-(benzofuran-2-carbonyl)-1,8-diazaspiro[4.5] decane-8-carboxylate]",< 0.1 µM,> 75%,
"O=C(OC(C(F)(F)F)C(F)(F)F)N1CCC2(CCCN2C(=O)c2nc3ccccc3o2)CC1 [Example 84, 1,1,1,3,3,3-Hexafluoropropan-2-yl 1-(benzo[d]oxazole-2-carbonyl)-1,8-diazaspiro[4.5] decane-8-carboxylate]",< 0.1 µM,> 75%,
"O=C(OC(C(F)(F)F)C(F)(F)F)N1CCC2(CCCN2C(=O)c2ccc3sccc3c2)CC1 [Example 90, 1,1,1,3,3,3-Hexafluoropropan-2-yl 1-(benzo[b]thiophene-5-carbonyl)-1,8-diazaspiro[4.5] decane-8-carboxylate]",< 0.1 µM,> 75%,
"Cc1c(C(=O)N2CCCC23CCN(C(=O)OC(C(F)(F)F)C(F)(F)F)CC3)sc2ccccc12 [Example 94, 1,1,1,3,3,3-Hexafluoropropan-2-yl 1-(3-methylbenzo[b]thiophene-2-carbonyl)-1,8-diazaspiro[4.5] decane-8-carboxylate]",< 0.1 µM,> 75%,
"O=C(OC(C(F)(F)F)C(F)(F)F)N1CCC2(CCCN2C(=O)c2cc3cc(Cl)ccc3s2)CC1 [Example 95, 1,1,1,3,3,3-Hexafluoropropan-2-yl 1-(5-chlorobenzo[b]thiophene-2-carbonyl)-1,8-diazaspiro[4.5] decane-8-carboxylate]",< 0.1 µM,> 75%,

# Continued, in another order:
IC50,"inhibition at 1 µM (1 uM, mouse)",Structure (SMILES),"MAGL % Inhibition at 1 uM (Mouse) (1 uM, mouse)"
0.1 to 1 µM,,"CC(C)n1cc(CN2CCCC23CCN(C(=O)OC(C(F)(F)F)C(F)(F)F)CC3)c(-c2cccc(N3CCCC3)c2)n1 [Example 8, 1,1,1,3,3,3-Hexafluoropropan-2-yl 1-((1-isopropyl-3-(3-(pyrrolidin-1-yl)phenyl)-1H-pyrazol-4-yl)methyl)-1,8-diazaspiro[4.5]decane-8-carboxylate]",### (% inhibition is greater than or equal to 75%)
,25 to 75%,"O=C(O)c1ccc2[nH]c(CN3CCCC34CCN(C(=O)OC(C(F)(F)F)C(F)(F)F)CC4)cc2c1 [Example 15, 2-((8-(((1,1,1,3,3,3-Hexafluoropropan-2-yl)oxy)carbonyl)-1,8-diazaspiro[4.5]decan-1-yl)methyl)-1H-indole-5-carboxylic acid]",
0.1 to 1 µM,> 75%,"O=C(OC(C(F)(F)F)C(F)(F)F)N1CCC2(CCCN2Cc2cc3c(Cl)cccc3s2)CC1 [Example 44, 1,1,1,3,3,3-Hexafluoropropan-2-yl 1-((4-chlorobenzo[b]thiophen-2-yl)methyl)-1,8-diazaspiro[4.5] decane-8-carboxylate]",
0.1 to 1 µM,,"O=C(OC(C(F)(F)F)C(F)(F)F)N1CCC2(CCCN2Cc2c[nH]c3cccc(Cl)c23)CC1 [Example 45, 1,1,1,3,3,3-Hexafluoropropan-2-yl 1-((4-chloro-1H-indol-3-yl)methyl)-1,8-diazaspiro[4.5] decane-8-carboxylate]",
< 0.1 µM,> 75%,"O=C(OC(C(F)(F)F)C(F)(F)F)N1CCC2(CCCN2Cc2cc(-c3ccc(Cl)cc3)on2)CC1 [Example 47, 1,1,1,3,3,3-Hexafluoropropan-2-yl 1-((5-(4-chlorophenyl)isoxazol-3-yl)methyl)-1,8-diazaspiro[4.5] decane-8-carboxylate]",
,> 75%,"Cc1c(CN2CCCC23CCN(C(=O)OC(C(F)(F)F)C(F)(F)F)CC3)[nH]c2ccc(Cl)cc12 [Example 48, 1,1,1,3,3,3-Hexafluoropropan-2-yl 1-((5-chloro-3-methyl-1H-indol-2-yl)methyl)-1,8-diazaspiro[4.5] decane-8-carboxylate]",
,> 75%,"COc1cccc2cc(CN3CCCC34CCN(C(=O)OC(C(F)(F)F)C(F)(F)F)CC4)[nH]c12 [Example 53, 1,1,1,3,3,3-Hexafluoropropan-2-yl 1-((7-methoxy-1H-indol-2-yl)methyl)-1,8-diazaspiro[4.5] decane-8-carboxylate]",
< 0.1 µM,> 75%,"O=C(OC(C(F)(F)F)C(F)(F)F)N1CCC2(CCCN2Cc2ccc3cc(Cl)ccc3n2)CC1 [Example 55, 1,1,1,3,3.3-Hexafluoropropan-2-yl 1-((6-chloroquinolin-2-yl)methyl)-1,8-diazaspiro[4.5] decane-8-carboxylate]",
< 0.1 µM,> 75%,"O=C(OC(C(F)(F)F)C(F)(F)F)N1CCC2(CCCN2C(=O)c2cc3ccccc3[nH]2)CC1 [Example 76, 1,1,1,3,3,3-Hexafluoropropan-2-yl 1-(1H-indole-2-carbonyl)-1,8-diazaspiro[4.5] decane-8-carboxylate]",
< 0.1 µM,> 75%,"O=C(OC(C(F)(F)F)C(F)(F)F)N1CCC2(CCCN2C(=O)c2ccc3[nH]ccc3c2)CC1 [Example 89, 1,1,1,3,3,3-Hexafluoropropan-2-yl 1-(1H-indole-5-carbonyl)-1,8-diazaspiro[4.5] decane-8-carboxylate]",
